Experimental data reported in patent publication US20010056060A1, “Treatment of osteoporsis with EP2/EP4 receptor selective agonists” (priority 2000, published 2001).
pIC50: −log10 of the molar value.

Legend:
[1] = target: T1, DP receptor (Homo sapiens, UniProt Q13258); test: DP receptor binding
T1 sequence (Q13258 1-359): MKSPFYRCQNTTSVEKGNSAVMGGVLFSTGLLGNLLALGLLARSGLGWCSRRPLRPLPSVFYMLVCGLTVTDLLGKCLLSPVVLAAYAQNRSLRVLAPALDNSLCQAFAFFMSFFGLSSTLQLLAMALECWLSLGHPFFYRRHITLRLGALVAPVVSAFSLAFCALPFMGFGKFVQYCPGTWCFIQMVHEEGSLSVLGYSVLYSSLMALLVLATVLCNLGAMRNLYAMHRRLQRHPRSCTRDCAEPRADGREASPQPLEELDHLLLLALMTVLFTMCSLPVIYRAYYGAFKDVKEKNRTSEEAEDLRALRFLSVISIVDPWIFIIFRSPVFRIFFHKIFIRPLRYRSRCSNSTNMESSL

[2] = tested on: osteopenic, OVX rats; test: Example One: skeletal effects in osteopenic OVX rats, distal femoral metaphyseal BMC/BMD by DXA; assay type: in vivo, Sprague-Dawley female rats; details: 10 mg/kg/day subcutaneous injection for 4 weeks
Method: Prostaglandin E2 (PGE2) restores bone mass by stimulating both bone formation and bone resorption but in favor of bone formation in ovariectomized (OVX) rat skeleton.
Sprague-Dawley female rats were sham-operated (n=20) or OVX (n=50) at 3 months of age. Five weeks post-surgery, OVX rats were treated (subcutaneous injection) with either vehicle or 3-(3-hydroxy-4-phenyl-butyl)-2-(6-(1 H—tetrazol-5-yl)-hexyl)-cyclopentanone at 10 mg/kg/day for 4 weeks. Distal femoral metaphyseal bone mineral content (BMC) and bone mineral density (BMD) were determined by dual energy x-ray absorptiometry (Hologic QDR-1000/W, Hologic Inc., Waltham, Mass.) according to the methods described by Ke et al., (Droloxifene, a New Estrogen Antagonist/Agonist, Prevents Bone Loss in Ovariectomized Rats, Endocrinology, 136:2435-2441; 1995).

[3] = target: FP receptor (Homo sapiens, UniProt P43088); test: FP receptor binding
[4] = target: T2, EP4 receptor (Homo sapiens, UniProt P35408); test: Assay for binding to prostaglandin E2 receptors (3H-PGE2 displacement), EP4
T2 construct: The full length EP4 receptor is made as disclosed in Bastien; expressed in transfected cells; membranes
Method: (§1) All operations are performed at 4° C. […] The cells are lysed by sonification with a Branson Sonifier (Model #250, Branson Ultrasonics Corporation, Danbury, Conn.) in 2 fifteen second bursts. Unlysed cells and debris are removed by centrifugation at 100× g for 10 min. Membranes are then harvested by centrifugation at 45,000× g for 30 minutes. Pelleted membranes are resuspended to 3-10 mg protein per ml, protein concentration being determined of the method of Bradford [Bradford, M., Anal. Biochem., 72, 248 (1976)]. Resuspended membranes are then stored frozen at −80° C. until use.
(§2) Frozen membranes prepared as above are thawed and diluted to 1 mg protein per ml in Buffer A above. […] The membranes are then recovered by filtration through type GF/C glass fiber filters (#1205-401, Wallac, Gaithersburg, Md.) using a Tomtec harvester (Model Mach II/96, Tomtec, Orange, Conn.). […] Each sample is then washed 3 times with 3 ml of [50 mM Tris-HCl (pH 7.4), 10 mM MgCl2, 1 mM EDTA]. The filters are then dried by heating in a microwave oven. To determine the amount of ^3H—prostaglandin bound to the membranes, the dried filters are placed into plastic bags with scintillation fluid and counted in a LKB 1205 Betaplate reader (Wallac, Gaithersburg, Md.).
(§3) The full length EP1 receptor is made as disclosed in Funk et al., Journal of Biological Chemistry, 1993, 268, 26767-26772. […]

[5] = target: T3, EP2 receptor (Homo sapiens, UniProt P43116); test: Assay for binding to prostaglandin E2 receptors (3H-PGE2 displacement), EP2
T3 construct: The full length EP2 receptor is made as disclosed in Regan et al; expressed in transfected cells; membranes
Method: as §1, §2, §3

[6] = target: IP receptor (Homo sapiens, UniProt P43119); test: IP receptor binding
[7] = target: T4, EP3 receptor (Homo sapiens, UniProt P43115); test: Assay for binding to prostaglandin E2 receptors (3H-PGE2 displacement), EP3
T4 construct: The full length EP3 receptor is made as disclosed in Regan et al; expressed in transfected cells; membranes
T4 sequence (P43115 1-390): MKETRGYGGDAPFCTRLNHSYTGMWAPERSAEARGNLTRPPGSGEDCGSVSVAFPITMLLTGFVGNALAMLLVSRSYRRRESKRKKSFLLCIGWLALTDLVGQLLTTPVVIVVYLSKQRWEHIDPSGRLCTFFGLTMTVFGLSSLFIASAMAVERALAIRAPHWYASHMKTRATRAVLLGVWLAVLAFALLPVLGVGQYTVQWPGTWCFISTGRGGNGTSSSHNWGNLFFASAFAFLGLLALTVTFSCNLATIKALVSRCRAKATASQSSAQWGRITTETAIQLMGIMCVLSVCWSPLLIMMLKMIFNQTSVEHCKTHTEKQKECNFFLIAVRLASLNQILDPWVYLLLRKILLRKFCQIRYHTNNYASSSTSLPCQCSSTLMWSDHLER
Method: (§4) All operations are performed at 4° C. […] Louis, Mo.), 1 uM pepstatin A peptide, (Sigma, St. Louis, Mo.), 10 uM elastatinal peptide, (Sigma, St. Louis, Mo.), 100 uM antipain peptide, (Sigma, St. Louis, Mo.)]. The cells are lysed by sonification with a Branson Sonifier (Model #250, Branson Ultrasonics Corporation, Danbury, Conn.) in 2 fifteen second bursts. Unlysed cells and debris are removed by centrifugation at 100× g for 10 min. Membranes are then harvested by centrifugation at 45,000× g for 30 minutes. Pelleted membranes are resuspended to 3-10 mg protein per ml, protein concentration being determined of the method of Bradford [Bradford, M., Anal. Biochem., 72, 248 (1976)]. Resuspended membranes are then stored frozen at -80° C. until use. Frozen membranes prepared as above are thawed and diluted to 1 mg protein per ml in Buffer A above. One volume of membrane preparation is combined with 0.05 volume test compound or buffer and one volume of 3 nM ^3H-prostaglandin E2 (#TRK 431, Amersham, Arlington Heights, Ill.) in Buffer A. The mixture (205 μL total volume) is incubated for 1 hour at 25° C. […] To determine the amount of ^3H-prostaglandin bound to the membranes, the dried filters are placed into plastic bags with scintillation fluid and counted in a LKB 1205 Betaplate reader (Wallac, Gaithersburg, Md.). […]

[8] = target: T5, EP1 receptor (Homo sapiens, UniProt P34995); test: Assay for binding to prostaglandin E2 receptors (3H-PGE2 displacement), EP1
T5 construct: The full length EP1 receptor is made as disclosed in Funk et al; expressed in transfected cells; membranes
T5 sequence (P34995 1-402): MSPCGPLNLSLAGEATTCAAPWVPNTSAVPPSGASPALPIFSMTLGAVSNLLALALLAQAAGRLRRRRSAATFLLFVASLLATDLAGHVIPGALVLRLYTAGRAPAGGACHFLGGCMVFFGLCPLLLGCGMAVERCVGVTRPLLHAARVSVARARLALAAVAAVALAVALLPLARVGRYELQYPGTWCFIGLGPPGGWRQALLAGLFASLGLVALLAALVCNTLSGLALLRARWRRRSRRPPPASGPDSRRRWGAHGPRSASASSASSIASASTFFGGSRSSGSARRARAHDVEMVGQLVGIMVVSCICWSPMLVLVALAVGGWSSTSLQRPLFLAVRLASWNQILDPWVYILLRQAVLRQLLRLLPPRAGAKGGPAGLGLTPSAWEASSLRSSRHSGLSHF
Method: as §4

T3 sequence (P43116 whole entry): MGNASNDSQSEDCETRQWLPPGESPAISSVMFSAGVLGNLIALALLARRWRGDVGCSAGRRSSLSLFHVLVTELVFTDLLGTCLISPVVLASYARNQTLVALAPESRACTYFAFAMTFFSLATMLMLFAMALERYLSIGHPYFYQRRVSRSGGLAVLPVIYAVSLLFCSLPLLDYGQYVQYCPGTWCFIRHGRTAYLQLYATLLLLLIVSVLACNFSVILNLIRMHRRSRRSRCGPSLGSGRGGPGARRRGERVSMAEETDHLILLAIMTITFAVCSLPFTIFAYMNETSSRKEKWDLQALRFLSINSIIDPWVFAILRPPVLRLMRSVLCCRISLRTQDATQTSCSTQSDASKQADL
T2 sequence (P35408 whole entry): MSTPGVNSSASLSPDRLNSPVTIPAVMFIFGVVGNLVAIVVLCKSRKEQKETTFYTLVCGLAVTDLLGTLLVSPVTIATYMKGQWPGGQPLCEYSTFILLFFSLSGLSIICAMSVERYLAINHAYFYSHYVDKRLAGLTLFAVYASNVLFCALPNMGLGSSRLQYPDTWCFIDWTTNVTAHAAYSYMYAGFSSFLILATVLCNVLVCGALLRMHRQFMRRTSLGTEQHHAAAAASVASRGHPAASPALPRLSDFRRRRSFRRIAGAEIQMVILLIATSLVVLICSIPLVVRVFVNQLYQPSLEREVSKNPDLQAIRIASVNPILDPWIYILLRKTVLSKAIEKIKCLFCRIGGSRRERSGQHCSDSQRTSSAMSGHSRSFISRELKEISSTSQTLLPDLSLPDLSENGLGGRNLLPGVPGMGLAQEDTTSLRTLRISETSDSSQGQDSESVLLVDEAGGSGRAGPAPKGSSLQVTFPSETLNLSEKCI
Sequence of FP receptor (P43088 whole entry): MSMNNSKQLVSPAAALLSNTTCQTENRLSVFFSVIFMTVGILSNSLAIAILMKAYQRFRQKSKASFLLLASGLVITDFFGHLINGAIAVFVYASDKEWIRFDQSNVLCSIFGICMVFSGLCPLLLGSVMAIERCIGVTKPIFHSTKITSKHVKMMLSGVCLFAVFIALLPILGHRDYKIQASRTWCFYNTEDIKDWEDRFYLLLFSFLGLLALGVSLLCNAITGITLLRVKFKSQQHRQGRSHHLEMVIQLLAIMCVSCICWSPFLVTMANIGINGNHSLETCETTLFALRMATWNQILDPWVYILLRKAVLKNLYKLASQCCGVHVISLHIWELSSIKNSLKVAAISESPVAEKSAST
Sequence of IP receptor (P43119 whole entry): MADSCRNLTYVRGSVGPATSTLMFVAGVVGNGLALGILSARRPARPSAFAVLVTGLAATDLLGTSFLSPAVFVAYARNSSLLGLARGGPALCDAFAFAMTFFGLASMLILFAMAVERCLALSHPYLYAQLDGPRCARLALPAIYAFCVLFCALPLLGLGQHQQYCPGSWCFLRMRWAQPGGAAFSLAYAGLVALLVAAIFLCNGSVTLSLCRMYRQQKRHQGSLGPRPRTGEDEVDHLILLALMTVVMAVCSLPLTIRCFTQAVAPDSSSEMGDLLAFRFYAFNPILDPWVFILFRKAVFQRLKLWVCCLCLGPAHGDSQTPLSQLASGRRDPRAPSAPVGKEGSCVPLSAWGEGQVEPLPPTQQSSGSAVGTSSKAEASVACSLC

pIC50 [1] | pIC50 [3] | pIC50 [4] | pIC50 [5] | pIC50 [6] | pIC50 [7] | pIC50 [8] | Structure (SMILES) | restoration of bone mass to the OVX, osteopenic rat skeleton [2] | increase in distal femoral metaphyseal BMC as compared with OVX controls ([2]; started 5 weeks post-OVX) | increase in distal femoral metaphyseal BMC as compared with pre-treatment OVX controls ([2]; started 5 weeks post-OVX) | increase in distal femoral metaphyseal BMD as compared with OVX controls ([2]; started 5 weeks post-OVX) | increase in distal femoral metaphyseal BMD as compared with pre-treatment OVX controls ([2]; started 5 weeks post-OVX)
< 5.49 | < 5.49 | 7.15 | 7.25 | < 5.49 | < 5.49 | < 5.49 | O=C1CCC(CCC(O)Cc2ccccc2)C1CCCCCCc1nnn[nH]1 (centres unmarked) [3-(3-hydroxy-4-phenyl-butyl)-2-(6-(1 H—tetrazol-5-yl)-hexyl)-cyclopentanone] | completely restored the bone mass | +42% | +23% | +28% | +17%
– | – | – | 7.77 | – | – | – | CS(=O)(=O)N(CCCCCCC(=O)O)CCOc1cc(Cl)cc(Cl)c1 [7-(2-(3,5-dichloro-phenoxy)-ethyl)-methanesulfonyl-amino)-heptanoic acid] | – | – | – | – | –
– | – | 7.44 | – | – | – | – | O=C(O)CCCCCCN1C(=O)CCC1CCC(O)Cc1ccccc1 (centres unmarked) [7-(2-(3-hydroxy-4-phenyl-butyl)-5-oxo-pyrrolidin-1-yl)-heptanoic acid] | – | – | – | – | –
